From patent US4886785A, “Pyrimidine derivatives, pharmaceutical compositions and method of using same” (Hoffmann-La Roche Inc., priority 1986, dated 1989)

Target: herpes simplex virus type 2 (HSV-2) thymidine kinase (Human herpesvirus 2, UniProt P89446)
Experiment: Inhibition of herpes simplex virus type 2 (HSV-2) thymidine kinase in vitro (3H-thymidine phosphorylation)
Format: biochemical
Conditions: thymidine kinase extract, 0.3 μM 3H-thymidine, 5 mM ATP, pH 8, 37° C., 30 minutes
Method: In this test, the assay mixture contains 50 mM Tris-HCl, pH 8, 5 mM magnesium chloride, 5 mM ATP, 0.3 μM ^3 H-thymidine (50 Ci/mmol), suitably diluted thymidine kinase extract and various concentrations of compounds of formula I or tautomers in a total volume of 100 μl. Assays are incubated at 37° C. for 30 minutes and the reaction is terminated by immersion in a boiling water bath for 2 minutes. 85 μl aliquots from each assay are then dried on cellulose paper discs and the unphosphorylated ^3 H-thymidine is removed by washing in 4 mM ammonium formate. The radioactivity remaining bound to the discs is then measured by scintillation spectrophotometry. The degree of inhibition at each concentration of compound of formula I is expressed as a percentage of the control reaction (100%) after substracting a measured blank value which represents the amount of radioactivity bound to the disc from a reaction containing heat inactivated enzymes. The IC50 value, namely the concentration of compound of formula I or tautomer thereof which inhibits enzyme activity by 50%, is then calculated. The results obtained with representative compounds of formula I are compiled in the following Table: […]

Chain of herpes simplex virus type 2 (HSV-2) thymidine kinase (P89446 whole entry): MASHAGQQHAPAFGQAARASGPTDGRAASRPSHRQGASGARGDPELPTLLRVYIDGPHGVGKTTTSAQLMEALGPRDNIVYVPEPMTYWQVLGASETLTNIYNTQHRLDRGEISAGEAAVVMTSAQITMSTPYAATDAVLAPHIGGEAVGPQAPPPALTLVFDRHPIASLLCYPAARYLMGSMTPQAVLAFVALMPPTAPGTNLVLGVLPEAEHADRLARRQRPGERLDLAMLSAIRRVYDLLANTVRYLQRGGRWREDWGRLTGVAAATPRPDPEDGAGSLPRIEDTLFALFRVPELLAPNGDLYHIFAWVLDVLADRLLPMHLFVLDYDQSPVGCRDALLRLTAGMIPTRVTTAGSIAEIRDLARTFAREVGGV

Row | IC50 | Structure (SMILES)
1 | 90 nM | CCc1cn([C@H]2C[C@H](O)[C@@H](CNCCc3c(Cl)cccc3Cl)O2)c(=O)[nH]c1=O [Example 3b, 5'-[2-(2,6-dichlorophenyl)ethylamino]-2',5'-dideoxy-5-ethyluridine]
2 | 60 nM | CCc1cn([C@H]2C[C@H](O)[C@@H](CNCc3cccc(Cl)c3Cl)O2)c(=O)[nH]c1=O [Example 4b, 5'-(2,3-dichlorobenzylamino)-2',5'-dideoxy-5-ethyluridine]
3 | 80 nM | CCc1cn([C@H]2C[C@H](O)[C@@H](CNCc3c(Cl)cccc3Cl)O2)c(=O)[nH]c1=O [Example 4c, 5'-(2,6-dichlorobenzylamino)-2',5'-dideoxy-5-ethyluridine]
